The source of these data is PubChem BioAssay (NCI).

Among the test systems are HCT-116 colon; HL-60(TB) leukemia; IGROV1 ovarian; OVCAR-3 ovarian; SK-MEL-2 melanoma; U251 CNS; UACC-257 melanoma; UACC-62 melanoma; HCT-15 colon; MDA-MB-435.
Test in all cases: NCI tumour cell line growth inhibition, 48 h

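96-well plates; 48 h exposure; 5 concentrations. Endpoints by linear interpolation between flanking doses. Not reached: highest tested concentration assigned. At the GI50, growth is halved. TGI: concentration producing complete growth inhibition.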

As for `CCN(CC)CC(C(=O)Nc1c(C)cccc1C)/C(C)=N/NC(N)=S` (stereo not drawn), the TGI in the assay with HCT-116 colon, in the assay with HL-60(TB) leukemia, in the assay on IGROV1 ovarian, in the assay on OVCAR-3 ovarian, in the assay with SK-MEL-2 melanoma and in the assay on U251 CNS was above 100 µM each time. Besides, the TGI in the assay with UACC-257 melanoma and in the assay with UACC-62 melanoma was above 100 µM each time.
As for `CCc1cccc(C(C)C)c1C1C(=O)C(=O)N(c2nc3ccccc3s2)C(=O)C1=O`, the TGI in the assay on HCT-116 colon, with HCT-15 colon, in the assay on HL-60(TB) leukemia, in the assay on IGROV1 ovarian, in the assay on OVCAR-3 ovarian and with SK-MEL-2 melanoma was above 100 µM each time. For the same compound, the TGI with U251 CNS, in the assay with UACC-257 melanoma and with UACC-62 melanoma was above 100 µM each time.
Turning to `Nc1n[nH]c(=O)c2c1c(Br)cn2C1OC(CO)C(O)C1O` (stereo not drawn), the TGI in the assay with HCT-116 colon was above 40.6 µM; in the assay on HCT-15 colon, 48.4 µM; in the assay with HL-60(TB) leukemia, 1.03 µM; in the assay on IGROV1 ovarian it was above 100 µM; in the assay on OVCAR-3 ovarian, above 50.8 µM; in the assay with SK-MEL-2 melanoma, 41.4 µM. Further, the TGI in the assay with U251 CNS was above 54.6 µM; in the assay with UACC-257 melanoma, above 77.9 µM; with UACC-62 melanoma, 37.5 µM.
On to `Cc1cc(N2CCOCC2)nc(N(CCNc2ccnc3cc(Cl)ccc23)Cc2cccs2)n1`, for which the GI50 with HCT-15 colon is 1.78 µM; in the assay with HL-60(TB) leukemia, 1.95 µM; with IGROV1 ovarian it was 1.96 µM; in the assay on MDA-MB-435 it was 1.76 µM; in the assay on SK-MEL-2 melanoma, 1.99 µM; with U251 CNS, 1.88 µM. The values for the GI50 in the assay with UACC-257 melanoma and in the assay on UACC-62 melanoma were 1.88 µM and 1.9 µM, respectively. The TGI with HCT-15 colon was found to be 4.05 µM; with HL-60(TB) leukemia, 3.83 µM; in the assay on IGROV1 ovarian it was 4.97 µM; in the assay with MDA-MB-435, 3.32 µM; in the assay with SK-MEL-2 melanoma it was 4.08 µM; with U251 CNS it was 3.64 µM. Moreover, the results for the TGI with UACC-257 melanoma and in the assay on UACC-62 melanoma were 3.6 µM and 3.65 µM, respectively.
`Cc1nc2c(=O)n(C)c(=O)nc-2n(-c2ccc(Cl)cc2)c1C`: the TGI in the assay on HCT-15 colon, in the assay on HL-60(TB) leukemia, in the assay on IGROV1 ovarian, in the assay on OVCAR-3 ovarian, in the assay with SK-MEL-2 melanoma and in the assay with U251 CNS was above 100 µM in each case. For the same compound, the TGI with UACC-257 melanoma and in the assay on UACC-62 melanoma was above 100 µM throughout.
`O=C1c2ccccc2CC1C1(O)C(=O)Nc2c(Cl)cc(Cl)cc21` (stereo not drawn): the TGI is above 100 µM in the assay with HCT-15 colon; 96.4 µM in the assay with HL-60(TB) leukemia; above 100 µM in the assay with OVCAR-3 ovarian; above 100 µM in the assay on SK-MEL-2 melanoma; above 100 µM in the assay on U251 CNS; above 100 µM in the assay on UACC-257 melanoma.
`COC(=O)c1c(OC(=O)c2ccccc2)noc1CC(=O)OC1C=CCCC1` (stereo not drawn): the TGI in the assay on HCT-116 colon, with HCT-15 colon, with HL-60(TB) leukemia, in the assay with IGROV1 ovarian, with OVCAR-3 ovarian and in the assay on SK-MEL-2 melanoma was above 100 µM throughout. The TGI in the assay on U251 CNS, in the assay with UACC-257 melanoma and in the assay with UACC-62 melanoma was above 100 µM throughout.
Turning to `CC(=O)OC12CCCCC1C1(CCCC1)NC2=O` (stereo not drawn), the TGI in the assay with HCT-116 colon, in the assay with HCT-15 colon, with HL-60(TB) leukemia, in the assay with IGROV1 ovarian, in the assay with OVCAR-3 ovarian and in the assay on U251 CNS was above 100 µM throughout. The TGI with UACC-257 melanoma and with UACC-62 melanoma was above 100 µM in each case.
Regarding `Cc1ccc(S(=O)(=O)c2ccccn2)cc1`, the TGI in the assay with HCT-116 colon, with HCT-15 colon, in the assay on HL-60(TB) leukemia, with IGROV1 ovarian, with OVCAR-3 ovarian and in the assay on SK-MEL-2 melanoma was above 100 µM each time. Moreover, the TGI with U251 CNS, in the assay on UACC-257 melanoma and in the assay on UACC-62 melanoma was above 100 µM each time.
Consider `N#CC1=C(N)Oc2c(ccc3ccccc23)C1c1ccccc1Cl` (stereo not drawn), for which the GI50 in the assay on HCT-116 colon is 0.275 µM; in the assay with HCT-15 colon, 0.183 µM; in the assay on HL-60(TB) leukemia it was 0.27 µM; in the assay on IGROV1 ovarian, 0.455 µM; in the assay with OVCAR-3 ovarian, 0.197 µM; with SK-MEL-2 melanoma it was 0.558 µM. Moreover, the values for the GI50 in the assay on U251 CNS, with UACC-257 melanoma and with UACC-62 melanoma were 0.407 µM, 11 µM and 0.677 µM, respectively. Further, the TGI came to 5.41 µM in the assay on HCT-116 colon; 11.4 µM with HCT-15 colon; 0.776 µM with HL-60(TB) leukemia; 15.4 µM with IGROV1 ovarian; 0.493 µM with OVCAR-3 ovarian; 18 µM in the assay on SK-MEL-2 melanoma. The TGI in the assay with U251 CNS was 17.1 µM; with UACC-257 melanoma it was 38.2 µM; with UACC-62 melanoma it was 17.7 µM.
Regarding `Cc1nn(C(=O)CC(=O)Nc2ccccc2Cl)c(C)c1N=Nc1ccccc1Cl`, the TGI in the assay with HCT-116 colon, in the assay with HCT-15 colon, in the assay with HL-60(TB) leukemia, in the assay with IGROV1 ovarian, in the assay with OVCAR-3 ovarian and in the assay on SK-MEL-2 melanoma was above 100 µM each time. Moreover, the TGI with U251 CNS, in the assay with UACC-257 melanoma and in the assay with UACC-62 melanoma was above 100 µM each time.
Take `O=S(O)CCCSSCCCCSSCCCS(=O)O`: the TGI in the assay on HCT-116 colon, with HCT-15 colon, in the assay on IGROV1 ovarian, with OVCAR-3 ovarian, in the assay with SK-MEL-2 melanoma and in the assay with U251 CNS was above 100 µM each time. In addition, the TGI with UACC-257 melanoma and with UACC-62 melanoma was above 100 µM throughout.
For the compound `CC/C(=C(\c1ccccc1)c1ccc(OCC[N+](C)(C)C)cc1)c1ccccc1`, the TGI was 31.7 µM in the assay with HCT-116 colon; 34.1 µM with HCT-15 colon; 6.13 µM in the assay on HL-60(TB) leukemia; 27.8 µM with IGROV1 ovarian; 20.3 µM with OVCAR-3 ovarian; 30.2 µM in the assay with SK-MEL-2 melanoma. The TGI came to 29.2 µM in the assay with U251 CNS, 24.4 µM in the assay with UACC-257 melanoma and 26.8 µM in the assay with UACC-62 melanoma.
As to `CCCCCC1C2C(=O)NC(=O)C1C(=O)NC2=O` (stereo not drawn), the TGI with HCT-15 colon, with HL-60(TB) leukemia, with IGROV1 ovarian, in the assay with OVCAR-3 ovarian, in the assay on SK-MEL-2 melanoma and in the assay with UACC-257 melanoma was above 100 µM in each case. Further, in the assay with UACC-62 melanoma, the TGI is above 100 µM.
